The source made the active and inactive calls. Cut-off read from the data, not from the text of the source, for most assays here: actives have a measured EC50 and inactives only a lower limit.
Tests used:
[1] = biological target: T1, Serine/threonine-protein phosphatase (Candida dubliniensis (strain CD36 / CBS 7987 / NCPF 3949 / NRRLY-17841) (Yeast), UniProt B9W6M3); test: blockers of CaCl2-induced CDRE-lacZ signaling – S. cerevisiae, luminescence, secondary, dose response (AID 2388); type: functional, cell-based;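 note: yeast reporter cells carrying a calcineurin-responsive lacZ construct stimulated with calcium chloride; luminescent beta-galactosidase reporter signal in whole cells rather than isolated phosphatase activity; potency for inhibition where a drop in reporter signal means calcineurin blockade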
T1 sequence (B9W6M3 whole entry): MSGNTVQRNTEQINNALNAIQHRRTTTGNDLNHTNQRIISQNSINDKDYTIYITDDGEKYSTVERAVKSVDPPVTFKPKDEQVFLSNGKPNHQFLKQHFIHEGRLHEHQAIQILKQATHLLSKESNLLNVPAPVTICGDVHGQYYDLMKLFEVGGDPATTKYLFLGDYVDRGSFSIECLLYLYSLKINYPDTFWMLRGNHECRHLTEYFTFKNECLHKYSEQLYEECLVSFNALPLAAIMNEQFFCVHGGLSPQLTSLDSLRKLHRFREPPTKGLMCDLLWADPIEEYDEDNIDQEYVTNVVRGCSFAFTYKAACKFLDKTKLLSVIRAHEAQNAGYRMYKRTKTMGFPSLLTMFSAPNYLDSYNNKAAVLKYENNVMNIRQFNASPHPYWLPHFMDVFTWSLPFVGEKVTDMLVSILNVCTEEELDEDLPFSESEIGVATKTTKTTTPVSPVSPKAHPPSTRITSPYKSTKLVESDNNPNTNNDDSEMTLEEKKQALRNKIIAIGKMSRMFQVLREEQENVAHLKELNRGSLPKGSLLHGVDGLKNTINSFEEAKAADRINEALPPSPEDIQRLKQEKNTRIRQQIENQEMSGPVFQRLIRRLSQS

[2] = fluconazole-exposed Candida albicans growth modulators – fluorescence, retest, confirmation (AID 2467); type: functional, cell-based
[3] = biological target: T2, Streptokinase A (Streptococcus pyogenes serotype M1, UniProt P10520); test: viability-normalized secreted streptokinase activity reduction – plasminogen activation absorbance, OD405, dose response (AID 1914); type: functional, Streptococcus pyogenes M1 GAS;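 note: secreted streptokinase activity via plasminogen activation per viability signal from cell pellet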
T2 sequence (P10520 whole entry): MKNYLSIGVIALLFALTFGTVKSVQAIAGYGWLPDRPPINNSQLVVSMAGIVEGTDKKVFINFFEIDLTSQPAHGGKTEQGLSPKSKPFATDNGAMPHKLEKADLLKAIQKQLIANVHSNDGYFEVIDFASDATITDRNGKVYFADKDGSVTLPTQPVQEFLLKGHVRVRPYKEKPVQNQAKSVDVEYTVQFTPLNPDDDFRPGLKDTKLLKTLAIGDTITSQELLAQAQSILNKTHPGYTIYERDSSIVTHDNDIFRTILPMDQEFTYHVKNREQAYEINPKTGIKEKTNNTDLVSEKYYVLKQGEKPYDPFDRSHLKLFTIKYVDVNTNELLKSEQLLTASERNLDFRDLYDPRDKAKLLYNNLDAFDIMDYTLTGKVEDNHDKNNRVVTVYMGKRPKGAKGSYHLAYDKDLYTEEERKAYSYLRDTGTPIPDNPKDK

[4] = NIH-3T3 fibroblast cytotoxicity, dose response, cytotoxicity control, cell-based, fluorescence, Alamar Blue, secondary assay (AID 2327); type: functional;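 note: NIH-3T3 mouse fibroblasts cultured with fluconazole at 8 µg/mL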
[5] = test system: Streptococcus; test: GAS UMAA2166 growth inhibition – luminescence, BacTiterGlo, counter-screen for streptokinase expression inhibitor project, dose response (AID 1915); type: functional, organism-based;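 note: potency for reduction of bacterial viability or growth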
[6] = test system: Streptococcus sp. 'group A'; test: Streptococcus pyogenes SK(-)GAS viability under kanamycin – luminescence, BacTiterGlo, confirmation, counter-screen for streptokinase expression inhibitor project, dose response (AID 1900); type: functional, organism-based
[7] = biological target: ATP-dependent molecular chaperone HSP82 (Candida albicans (strain WO-1) (Yeast), UniProt C4YTQ8); test: steroid-induced GRE reporter decrease in yeast – S. cerevisiae, luminescence, Hsp90 inhibitor project, dose response (AID 2400); type: functional, cell-based;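 note: beta-galactosidase luminescence from glucocorticoid response element reporter as proxy for Hsp90 function; inhibitor potency where signal loss means Hsp90 inhibition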
[8] = NIH3T3 cell viability loss – ATP luminescence, mouse fibroblasts, counter-screen, dose response (AID 2010); type: functional, cell-based;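 note: cells exposed to compound for about 90 hours before reading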
[9] = biological target: Dual specificity tyrosine-phosphorylation-regulated kinase 1A (Rattus norvegicus, UniProt Q63470); type: biochemical, Homo sapiens
[10] = Trypanosoma cruzi growth suppression in host cells – NIH3T3 host cells, beta-gal luminescence, confirmation (AID 2044); type: functional, cell-based;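 note: intracellular parasites grown in NIH/3T3 mouse fibroblasts as host cells; luminescent beta-galactosidase reporter signal from transgenic T. cruzi replicating inside host cells; inhibitors lower the luminescence signal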
[11] = biological target: Genome polyprotein (dengue virus type 2, UniProt P29990); test: flavivirus cap methylation enzyme inhibition – biochemical, confirmation dose response, primary screen (AID 588689); type: functional
[12] = test system: Vero; test: viability of Vero cells under compound – cytotoxicity control for flavivirus capping enzyme inhibitors (AID 588742); type: functional; conditions: Chlorocebus sabaeus
[13] = test system: Escherichia coli; test: microbe, parasite or virus in culture
[14] = biological target: FAD-linked sulfhydryl oxidase ALR (Homo sapiens, UniProt P55789); test: ALR-catalysed DTT oxidation blockers – biochemical, H2O2 detection, luminescence, cherry-pick, dose response (AID 493248)
[15] = biological target: T3, Endoribonuclease toxin MazF (Escherichia coli K-12, UniProt P0AE70); test: substrate-only fluorescence increase artefacts – biochemical, single-stranded RNase substrate, counter-screen for MazEF activator project, dose response (AID 588502); type: functional
T3 sequence (P0AE70 whole entry): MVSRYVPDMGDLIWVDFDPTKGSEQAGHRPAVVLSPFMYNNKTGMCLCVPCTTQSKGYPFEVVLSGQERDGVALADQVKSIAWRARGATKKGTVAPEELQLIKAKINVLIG

[16] = biological target: T3, Endoribonuclease toxin MazF; test: activation of MazEF endoribonuclease cleavage – biochemical, fluorescence, single-stranded RNA substrate, uHTS hits, dose response (AID 588481); type: functional
[17] = test system: HEK293; test: EBV LMP1 TES2 canonical NF-kB signalling blockers – cell-based, HEK293, luciferase, cherry-pick, dose response (AID 588343); type: functional; conditions: Homo sapiens

Sequence of ATP-dependent molecular chaperone HSP82 (C4YTQ8 whole entry): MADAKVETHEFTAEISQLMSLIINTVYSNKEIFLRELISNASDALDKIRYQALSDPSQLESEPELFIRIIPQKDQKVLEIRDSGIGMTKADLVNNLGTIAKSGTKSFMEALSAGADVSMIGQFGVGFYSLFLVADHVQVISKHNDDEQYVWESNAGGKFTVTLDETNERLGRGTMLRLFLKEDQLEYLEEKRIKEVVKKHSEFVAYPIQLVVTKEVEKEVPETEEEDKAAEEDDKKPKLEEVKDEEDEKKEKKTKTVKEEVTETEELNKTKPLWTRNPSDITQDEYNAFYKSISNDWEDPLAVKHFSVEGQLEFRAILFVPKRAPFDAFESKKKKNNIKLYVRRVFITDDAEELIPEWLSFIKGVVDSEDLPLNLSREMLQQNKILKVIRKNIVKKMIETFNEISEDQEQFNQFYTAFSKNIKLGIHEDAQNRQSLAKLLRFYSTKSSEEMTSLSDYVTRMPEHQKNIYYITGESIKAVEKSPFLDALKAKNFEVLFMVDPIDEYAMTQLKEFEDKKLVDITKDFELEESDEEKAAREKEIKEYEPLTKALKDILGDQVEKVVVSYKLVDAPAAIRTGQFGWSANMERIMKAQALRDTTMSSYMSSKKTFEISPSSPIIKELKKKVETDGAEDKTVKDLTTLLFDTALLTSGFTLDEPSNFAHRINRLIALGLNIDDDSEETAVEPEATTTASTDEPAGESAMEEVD
Sequence of Genome polyprotein (P29990 2492-3391 limits assumed): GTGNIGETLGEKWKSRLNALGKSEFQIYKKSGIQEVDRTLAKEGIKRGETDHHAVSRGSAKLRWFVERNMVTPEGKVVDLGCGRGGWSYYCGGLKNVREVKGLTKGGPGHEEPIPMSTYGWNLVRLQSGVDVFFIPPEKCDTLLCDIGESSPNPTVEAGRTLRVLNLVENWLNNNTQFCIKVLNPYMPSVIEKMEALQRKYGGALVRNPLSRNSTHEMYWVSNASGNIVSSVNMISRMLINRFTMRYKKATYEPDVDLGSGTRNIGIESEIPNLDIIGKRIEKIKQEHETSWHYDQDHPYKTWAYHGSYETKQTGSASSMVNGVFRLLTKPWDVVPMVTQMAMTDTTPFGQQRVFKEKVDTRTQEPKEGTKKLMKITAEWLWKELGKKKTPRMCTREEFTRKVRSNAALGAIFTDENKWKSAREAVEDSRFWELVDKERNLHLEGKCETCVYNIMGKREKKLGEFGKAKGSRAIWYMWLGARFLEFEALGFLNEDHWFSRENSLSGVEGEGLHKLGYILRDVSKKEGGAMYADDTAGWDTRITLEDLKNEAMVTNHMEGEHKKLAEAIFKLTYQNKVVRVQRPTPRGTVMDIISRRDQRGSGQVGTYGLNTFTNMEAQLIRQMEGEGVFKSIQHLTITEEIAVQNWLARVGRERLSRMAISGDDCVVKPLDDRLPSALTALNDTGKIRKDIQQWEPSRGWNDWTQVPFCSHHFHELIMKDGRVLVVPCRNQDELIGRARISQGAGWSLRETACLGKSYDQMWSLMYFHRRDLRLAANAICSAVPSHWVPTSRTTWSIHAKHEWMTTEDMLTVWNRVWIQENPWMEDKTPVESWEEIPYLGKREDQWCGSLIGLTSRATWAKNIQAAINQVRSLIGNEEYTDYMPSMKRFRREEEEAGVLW
Sequence of FAD-linked sulfhydryl oxidase ALR (P55789 whole entry): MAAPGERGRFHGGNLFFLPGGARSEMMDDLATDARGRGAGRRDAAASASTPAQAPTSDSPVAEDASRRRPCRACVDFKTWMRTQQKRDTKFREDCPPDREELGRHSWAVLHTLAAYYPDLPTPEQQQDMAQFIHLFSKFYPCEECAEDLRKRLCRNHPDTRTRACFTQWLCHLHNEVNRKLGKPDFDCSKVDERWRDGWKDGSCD

Row | SMILES | EC50 [1] | EC50 [2] | EC50 [4] | EC50 [7] | AC50 [9] | also measured
1 | O=C(Nc1nnc(-c2ccco2)o1)c1ccc(Cl)cc1 | > 180 µM (inactive) | 0.9 µM (active) | > 150 µM (inactive) | > 150 µM (inactive) | – | EC50 [3]: > 150 µM (not active); EC50 [5]: 15.6 µM (active); EC50 [6]: 0.983 µM (active)
2 | O=C1NC(=O)/C(=C\c2ccc(Br)o2)S1 | > 180 µM (inactive) | 1.3 µM (active) | 87.3 µM (inconclusive) | > 150 µM (inactive) | 4.62 µM (active) | EC50 [8]: > 60 µM (not active); EC50 [10]: 21.7 µM (active)
3 | CCCCCCCCn1c(=O)c(C(=O)OCC)c(O)c2ccccc21 | – | – | – | – | – | IC50 [11]: 77.2 µM (active); CC50 [12]: > 40 µM (active)
4 | Cc1cc(C(C#N)c2ccccc2F)n2ncnc2n1 (stereo unspecified) | > 180 µM (inactive) | 1.28 µM (active) | > 150 µM (inconclusive) | > 160 µM (inactive) | – | AC50 [13]: 36.4 µM (active); AC50 [14]: 34.3 µM (active)
5 | Cc1ccc(S(=O)(=O)N2CCN(CC(=O)NC(=O)NCc3ccccc3)CC2)cc1C | – | – | – | – | – | EC50 [15]: > 99 µM (inactive); EC50 [16]: > 99 µM (inactive)
6 | c1ccc2c(-c3ccncc3)c[nH]c2c1 | – | – | – | – | 2.41 µM (active) | AC50 [17]: 144 µM (active)

Reference: ChEMBL document CHEMBL1201862, “PubChem BioAssay data set” (2004)
